Structures can show the parent of a compound that is named as a salt.
Tested on: MOLM-13 (MLL-AF9)
Experiment: Combination proliferation study with Compound A2 (ATP/CellTiter-Glo, Chou-Talalay combination index)
Type: cell-based, human
Conditions: 7 Day Cotreatment Model, Table 4
Protocol: The acute myelogenous leukemia cell lines MV4-11 (MLL-AF4) and MOLM-13 (MLL-AF9) were obtained from American Type Culture Collection (ATCC; Rockville, Md.) and Deutsche Sammlung von Mikroorganismen and Zellkulturen (DSMZ; Braunschweig, Germany) respectively.
(§1) Studies were performed using MLL-rearranged cell lines in vitro to evaluate the anti-proliferative effect of a combination of two agents together on cell growth. Initial proliferation studies were performed to determine the IC50 of a given compound in each cell line. The cell counts were measured by ATP quantitation using the Promega Cell Titer Glo kit and luminescence values corresponded to the amount of ATP in a given well.
Compounds were evaluated for synergy in the co-treatment phase by testing the compounds in a concentration range which was bracketed around their IC50 values. The compounds were plated to a 96 well plate in a matrix format (FIG. 3) which includes increasing concentrations of each drug in the combination in a constant ratio, in addition to the effect of each compound alone in the study. Cells were seeded and grown in the log-linear phase for 3 or 7 days in the co-treatment phase. Minimum inhibition (DMSO alone) controls were used in each plate to calculate fraction affected (Fa) of a test well. DMSO concentration was kept at 0.1% v/v.
The drug combination analysis was performed utilizing the Chou-Talalay method Synergy was determined using the software package Calcusyn by Biosoft. The combination index (CI) is a quantitative term used to describe the level of synergy or antagonism in a given test system. A combination index less than one indicates synergy, and a CI greater than one indicates antagonism. Further, strong synergism is achieved when the CI value falls below 0.3.
Graphs representing values of combination index (CI) versus Fractional effect (Fa) known as Fa-CI plots were generated and synergy was evaluated. Drug synergy was statistically defined by CI values less than 1, antagonism by CI>1 and additive effect by CI equal to 1.
Graphs representing values of combination index (CI) versus Fractional effect (Fa) known as Fa-CI plots were generated and synergy was evaluated. Drug synergy was statistically defined by CI values less than 1, antagonism by CI>1 and additive effect by CI equal to 1. […]
Cell viability was measured via ATP content using CellTiter-Glo® (Promega).
as §1, with “Proliferation studies” for “Studies”, “MOLM-13, MV4-11 and SKM-1” for “MLL-rearranged”, “cancer cell killing” for “anti-proliferative”, “IC50 values” for “IC50”, “correspond” for “corresponded”, “well. […]” for “well.”
Compounds evaluated for synergy in the co-treatment phase were tested in a range which was bracketed around the IC50's.

| Compound | Combination with Compound A2, MOLM-13 (MLL-AF9) |
| --- | --- |
| Nc1cccc2c1CN(C1CCC(=O)NC1=O)C2=O (stereo not shown) [Lenalidomide] | Combination Benefit |
| CC(C)C[C@H](NC(=O)[C@H](Cc1ccccc1)NC(=O)c1cnccn1)B(O)O [Velcade, bortezomib] | Combination Benefit |
| COC1=CC(c2cc3ccccc3[nH]2)=N/C1=C\c1[nH]c(C)cc1C [Obatoclax] | Additive (additive effect by CI equal to 1) |

Same assay, conditions: 7 Day Cotreatment Model, Table 5

| Compound | Combination with Compound A2, MOLM13 |
| --- | --- |
| O=C(Nc1ccncc1)c1cc([N+](=O)[O-])ccc1Cl [Compound T0070907] | Additive (additive effect by CI equal to 1) |
| C[C@@H]1COCCN1c1cc(C2(S(C)(=O)=O)CC2)nc(-c2cccc3[nH]ccc23)n1 [AZ20] | Synergy (Drug synergy was statistically defined by CI values less than 1) |
| Cn1c(=O)n(-c2ccc(C(C)(C)C#N)cc2)c2c3cc(-c4cnc5ccccc5c4)ccc3ncc21 [BEZ235] | Additive (additive effect by CI equal to 1) |

Same assay, conditions: MOLM-13 cells; co-treatment model of Example 3

| Compound | Combination with EPZ-5676 |
| --- | --- |
| O=C(Nc1ccncc1)c1cc([N+](=O)[O-])ccc1Cl [Compound T0070907] | Synergy (Drug synergy was statistically defined by CI values less than 1) |

Tested on: MOLM-13 cells
Experiment: EPZ-5676 300 nM 7-day pre-treatment, then second compound 72 hours, ATPLite, IC50 shift (Example 6)
Type: cell-based, human
Conditions: 300 nM EPZ-5676 or DMSO 7-day pre-treatment, then 2nd compound 72 hours, Synergy = IC50 of 2nd compound decreased by 2-fold or more vs DMSO control
Protocol: Cells were then equilibrated in incubators for 24 hours before treatment with a second compound. Treated assay plates were incubated with a second compound for 72 hours. After this time, plates were developed for endpoint analysis using ATPLite to measure ATP content, which is used as an indicator of cell viability.
“N/D” means that IC50 of the second compound could not be determined for both conditions.

| Compound | MOLM-13 (summary of combination study: EPZ-5676 + 2nd compound) |
| --- | --- |
| c1ccc([C@@H]2C[C@H]2NC2CCNCC2)cc1 [GSK-LSD1] | Synergy (considered synergistic if the IC50 value of the second compound decreased by 2-fold or more when EPZ-5676 was added as compared to the DMSO control) |
| O=C(c1cc(Cc2n[nH]c(=O)c3ccccc23)ccc1F)N1CCN(C(=O)C2CC2)CC1 [Olaparib] | Synergy (considered synergistic if the IC50 value of the second compound decreased by 2-fold or more when EPZ-5676 was added as compared to the DMSO control) |
| Cc1cccc(-c2[nH]c(C(C)(C)C)nc2-c2ccc3c(c2)OCO3)n1 [SB-505124] | Synergy (considered synergistic if the IC50 value of the second compound decreased by 2-fold or more when EPZ-5676 was added as compared to the DMSO control) |
| O=C(c1ccc(OCCN2CCCCC2)cc1)c1c(-c2ccc(O)cc2)sc2cc(O)ccc12 [Raloxifene Hydrochloride] | Synergy (considered synergistic if the IC50 value of the second compound decreased by 2-fold or more when EPZ-5676 was added as compared to the DMSO control) |
| Cn1c2ccccc2c2c3c(c4c5ccccc5n(CCC#N)c4c21)CNC3=O [Go 6976] | Synergy (considered synergistic if the IC50 value of the second compound decreased by 2-fold or more when EPZ-5676 was added as compared to the DMSO control) |
| CC(=O)O/N=C1\C(=O)N(Cc2cc(Cl)ccc2Cl)c2ccc(Cl)cc21 [LDN 57444] | Synergy (considered synergistic if the IC50 value of the second compound decreased by 2-fold or more when EPZ-5676 was added as compared to the DMSO control) |
| COc1ccc(Cl)c(Nc2nc3ccccc3nc2NS(=O)(=O)c2cccc(NC(=O)C(C)(C)N)c2)c1 [XL147] | Synergy (considered synergistic if the IC50 value of the second compound decreased by 2-fold or more when EPZ-5676 was added as compared to the DMSO control) |
| CC1=CC(=O)c2ccccc2C1=O [Menadione] | Synergy (considered synergistic if the IC50 value of the second compound decreased by 2-fold or more when EPZ-5676 was added as compared to the DMSO control) |
| Cc1cc(Cl)cc(OCCn2cc(F)cn2)c1-c1nc(N)nc2c1CN(C(=O)NCC(C)(F)F)C2 [BEP800] | Synergy (considered synergistic if the IC50 value of the second compound decreased by 2-fold or more when EPZ-5676 was added as compared to the DMSO control) |
| CCc1c2c(nc3ccc(OC(=O)N4CCC(N5CCCCC5)CC4)cc13)-c1cc3c(c(=O)n1C2)COC(=O)[C@]3(O)CC [Irinotecan Hydrochloride] | Synergy (considered synergistic if the IC50 value of the second compound decreased by 2-fold or more when EPZ-5676 was added as compared to the DMSO control) |
| O=c1cc(N2CCOCC2)oc2c(-c3cccc4c3sc3ccccc34)cccc12 [NU 7441] | Synergy (considered synergistic if the IC50 value of the second compound decreased by 2-fold or more when EPZ-5676 was added as compared to the DMSO control) |
| CC1=C(/C=C/C(C)=C\C=C\C(C)=C\C(=O)O)C(C)(C)CCC1 [Alitretinoin] | Synergy (considered synergistic if the IC50 value of the second compound decreased by 2-fold or more when EPZ-5676 was added as compared to the DMSO control) |
| COc1cc2nc(N3CCCN(C)CC3)nc(NC3CCN(Cc4ccccc4)CC3)c2cc1OC [BIX01294] | Synergy (considered synergistic if the IC50 value of the second compound decreased by 2-fold or more when EPZ-5676 was added as compared to the DMSO control) |
| Cc1cc(/N=N/c2ccc(S(=O)(=O)Nc3ccccn3)cc2)c(N)cc1O [MS 436] | Synergy (considered synergistic if the IC50 value of the second compound decreased by 2-fold or more when EPZ-5676 was added as compared to the DMSO control) |
| Nc1ccccc1NC(=O)c1ccc(CNC(=O)OCc2cccnc2)cc1 [MS-275] | Synergy (considered synergistic if the IC50 value of the second compound decreased by 2-fold or more when EPZ-5676 was added as compared to the DMSO control) |
| CO[C@H]1C[C@@H]2CC[C@@H](C)[C@@](O)(O2)C(=O)C(=O)N2CCCC[C@H]2C(=O)O[C@H]([C@H](C)C[C@@H]2CC[C@@H](OCCO)[C@H](OC)C2)CC(=O)[C@H](C)/C=C(\C)[C@@H](O)[C@@H](OC)C(=O)[C@H](C)C[C@H](C)/C=C/C=C/C=C/1C [Everolimus] | Synergy (considered synergistic if the IC50 value of the second compound decreased by 2-fold or more when EPZ-5676 was added as compared to the DMSO control) |
| CC(=O)OC[C@H]1O[C@@H]([S-])[C@H](OC(C)=O)[C@@H](OC(C)=O)[C@@H]1OC(C)=O.CCP(CC)CC.[Au+] [Auranofin] | Synergy (considered synergistic if the IC50 value of the second compound decreased by 2-fold or more when EPZ-5676 was added as compared to the DMSO control) |
| CCS(=O)(=O)N1CC(CC#N)(n2cc(-c3ncnc4[nH]ccc34)cn2)C1 [Baricitinib] | Synergy (considered synergistic if the IC50 value of the second compound decreased by 2-fold or more when EPZ-5676 was added as compared to the DMSO control) |
| Nc1cccc2c1C(=O)N(C1CCC(=O)NC1=O)C2=O (stereo not shown) [Pomalidomide] | Synergy (considered synergistic if the IC50 value of the second compound decreased by 2-fold or more when EPZ-5676 was added as compared to the DMSO control) |
| Cn1ncnc1[C@H]1c2n[nH]c(=O)c3cc(F)cc(c23)N[C@@H]1c1ccc(F)cc1 [BMN 673] | Synergy (considered synergistic if the IC50 value of the second compound decreased by 2-fold or more when EPZ-5676 was added as compared to the DMSO control) |
| CC(C)(C)c1nc(-c2cccc(NS(=O)(=O)c3c(F)cccc3F)c2F)c(-c2ccnc(N)n2)s1 [Dabrafenib] | Synergy (considered synergistic if the IC50 value of the second compound decreased by 2-fold or more when EPZ-5676 was added as compared to the DMSO control) |
| O=C1c2ccccc2-c2nc3nonc3nc21 [SMER 3] | Synergy (considered synergistic if the IC50 value of the second compound decreased by 2-fold or more when EPZ-5676 was added as compared to the DMSO control) |
| c1ccc2c(CCNc3ccc(Nc4ccncc4)cc3)c[nH]c2c1 [JNJ 26854165] | Synergy (considered synergistic if the IC50 value of the second compound decreased by 2-fold or more when EPZ-5676 was added as compared to the DMSO control) |
| COc1cc(Nc2ncc(F)c(Nc3ccc4c(n3)N(COP(=O)(O)O)C(=O)C(C)(C)O4)n2)cc(OC)c1OC [Fostamatinib disodium] | Synergy (considered synergistic if the IC50 value of the second compound decreased by 2-fold or more when EPZ-5676 was added as compared to the DMSO control) |
